Data taken from patent publication US7947673B2, “Method of scintigraphy” (Novartis AG, priority 2005, dated 2011).

Columns and labels:
[1] = Determination of the affinity constant for gallium by potentiometric measurements; assay type: physicochemical; conditions: ionic strength 0.1 M KCl, temperature 25° C., in water
Text: Determination of the affinity constant of 4-[3,5-bis(2-hydroxyphenyl)-[1,2,4]triazol-1-yl]benzoic acid for gallium
(§1) Chem. 2004, pp 4177-4192. Considering the affinity constants of 4-[3,5-bis(2-hydroxyphenyl)-[1,2,4]triazol-1-yl]benzoic acid for other metal ions according to Steinhauser et al., Eur. J. Inorg.

[2] = Ranking of affinity constants for metal ions; assay type: physicochemical; conditions: other metal ion constants according to Steinhauser et al., Eur. J. Inorg. Chem. 2004
Text: as §1

## O=C(O)c1ccc(-n2nc(-c3ccccc3O)nc2-c2ccccc2O)cc1 [4-[3,5-bis(2-hydroxyphenyl)-[1,2,4]triazol-1-yl]benzoic acid]
[1]
  affinity constant for Gallium, log β120: 33.8(1)
[2]
  ranking according to affinity constants for metal ions: Fe(III) (highest affinity)>Ga(III)>Al(III)>>Cu(II)>>Zn(II)>>Mg(II)>Ca(II)
